Measured values taken from patent US20010044459A1, “Hydroxamic acid derivatives” (priority 1997, published 2001).
Where a SMILES comes first, the peptide text is derived from it.

Columns and labels:
cortical cell cultures = test: In vitro toxicity of NAAG (LDH release); assay type: cell-based, rats; settings: NAAG 3 μM for 20 minutes
Method: Experiments are performed after 21 days in cultures.
At the end of exposure, the cells are washed once with HEPES buffered saline solution and then replaced with serum free modified Earle's basal medium. The cultures are then returned to the CO2 incubator for 24 hour recovery.
This control measurement is subtracted from each experimental point.

NAALADase [1] = biological target: NAALADase (Homo sapiens, UniProt Q04609); settings: read-out: Km of NAALADase for NAAG; NAAG as substrate; cited from earlier work
NAALADase [2] = biological target: NAALADase (Rattus norvegicus, UniProt P70627); test: In vitro assay of NAALADase activity ([3H]Glu liberated from [3H]NAAG, synaptosomal protein); assay type: biochemical; settings: compared with 2-(phosphonomethyl)pentanedioic acid
Method: Substrate and product were resolved by anion-exchange liquid chromatography. […] Quisqualate (100 μM) was included in parallel assay tubes to confirm the specificity of the measurements.

NAALADase (Rattus norvegicus, UniProt P70627), sequence (P70627 whole entry): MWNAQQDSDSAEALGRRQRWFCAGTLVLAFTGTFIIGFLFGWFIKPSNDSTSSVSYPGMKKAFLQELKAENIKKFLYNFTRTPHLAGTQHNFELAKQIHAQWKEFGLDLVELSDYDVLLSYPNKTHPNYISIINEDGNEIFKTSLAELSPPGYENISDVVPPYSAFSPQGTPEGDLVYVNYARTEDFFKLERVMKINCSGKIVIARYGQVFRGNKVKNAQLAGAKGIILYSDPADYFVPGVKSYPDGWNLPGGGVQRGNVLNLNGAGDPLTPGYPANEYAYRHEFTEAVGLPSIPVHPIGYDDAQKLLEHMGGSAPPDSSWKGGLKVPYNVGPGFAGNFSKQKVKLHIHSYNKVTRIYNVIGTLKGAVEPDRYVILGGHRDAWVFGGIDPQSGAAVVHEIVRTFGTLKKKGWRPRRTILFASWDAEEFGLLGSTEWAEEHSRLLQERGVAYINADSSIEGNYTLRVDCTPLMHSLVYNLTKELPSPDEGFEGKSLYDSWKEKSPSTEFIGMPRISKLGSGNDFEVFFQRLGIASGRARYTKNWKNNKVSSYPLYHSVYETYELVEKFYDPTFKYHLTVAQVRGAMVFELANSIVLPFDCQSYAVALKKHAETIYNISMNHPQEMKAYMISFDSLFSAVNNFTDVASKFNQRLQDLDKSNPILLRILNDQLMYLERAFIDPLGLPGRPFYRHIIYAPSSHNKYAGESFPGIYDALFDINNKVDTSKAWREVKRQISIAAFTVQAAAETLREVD
NAALADase (Homo sapiens, UniProt Q04609), sequence (Q04609 whole entry): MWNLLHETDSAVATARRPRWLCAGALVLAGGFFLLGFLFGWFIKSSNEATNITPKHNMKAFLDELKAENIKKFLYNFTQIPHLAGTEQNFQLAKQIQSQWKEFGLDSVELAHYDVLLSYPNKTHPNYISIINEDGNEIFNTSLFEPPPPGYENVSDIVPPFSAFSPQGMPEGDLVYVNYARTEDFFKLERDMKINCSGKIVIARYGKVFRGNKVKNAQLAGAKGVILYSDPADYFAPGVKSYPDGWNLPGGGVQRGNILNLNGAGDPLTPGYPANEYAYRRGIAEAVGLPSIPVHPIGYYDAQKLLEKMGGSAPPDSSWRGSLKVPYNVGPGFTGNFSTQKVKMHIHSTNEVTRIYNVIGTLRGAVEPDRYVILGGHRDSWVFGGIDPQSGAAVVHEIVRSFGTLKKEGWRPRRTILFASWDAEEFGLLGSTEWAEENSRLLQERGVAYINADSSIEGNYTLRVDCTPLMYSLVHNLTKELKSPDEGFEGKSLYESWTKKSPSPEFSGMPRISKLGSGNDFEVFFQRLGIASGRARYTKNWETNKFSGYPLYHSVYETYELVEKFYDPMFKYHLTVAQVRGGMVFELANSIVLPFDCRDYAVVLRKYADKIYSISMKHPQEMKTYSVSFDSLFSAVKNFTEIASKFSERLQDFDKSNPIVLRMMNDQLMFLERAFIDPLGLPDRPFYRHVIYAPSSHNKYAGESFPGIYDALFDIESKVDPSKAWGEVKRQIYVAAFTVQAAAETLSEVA

SMILES | % Toxicity (cortical cell cultures) [%] | Km (NAALADase [1]) [µM] | NAALADase inhibiting activity (in words, by comparison) (NAALADase [2])
CC(=O)N[C@@H](CC(=O)O)C(=O)N[C@@H](CCC(=O)O)C(=O)O [NAAG, N-acetyl-aspartyl-glutamate] (Ac-Asp-Glu-OH) | 3.51 | 0.54 | –
O=C(O)CCC(CP(=O)(O)CCC(=O)O)C(=O)O (stereo not shown) [2-[[2-carboxyethyl)hydroxyphosphinol]methyl]pentanedioic acid] | – | – | lower NAALADase inhibiting activity
O=C(O)CC(CP(=O)(O)O)C(=O)O (stereo not shown) [2-(phosphonomethyl)succinic acid] | – | – | much lower NAALADase inhibiting activity
